Results from patent publication US20220281930A1, “COMPOSITIONS AND METHODS FOR THE TREATMENT OF PATHOLOGICAL PAIN AND ITCH” (DUKE UNIVERSITY, priority 2019, published 2022).

How the values were obtained:
KCC2 mRNA = KCC2 mRNA RT-qPCR in microdissected spinal cord dorsal horn; assay type: in vivo, mouse; details: KP 10 mg/kg; after PSNL vs vehicle
Protocol: oligodT-initiated reverse transcription of 1 μg total RNA, DNA-se treated, was subjected to RT-qPCR using primers specific for KCC2 for rat and KCC2 for human sequences, normalized for neuronal βIII-tubulin, as previously described (Yeo et al., 2009, J Neurosci 29:14652-14662). For cultured neurons, total RNA was extracted from pelleted cells, and for spinal cord tissue it was extracted from microdissected lumbar spinal cord dorsal horn.
With the aforementioned findings and in view of the SCDH as the likely site of analgesic action of KP (Coull et al., 2003, Nature 424:938-942; Gagnon et al., 2013, Nat Med 19:1524-1528), SCDH KCC2 expression and function in nerve injury and response to KP was assessed. […] To measure KCC2 mRNA, SCDH Rexed-layers I-II were microdissected with laser capture followed by RT-qPCR. SCDH KCC2 protein expression was measured morphometrically after KCC2 immunolabeling using SCDH laminae I-II as the region-of-interest (FIG. 5B).

nerve injury pain = experiment: Nerve constriction injury (PSNL) pain model, mechanical withdrawal; assay type: in vivo, mouse
Protocol: For pain-related behavior, mechanical allodynia was assessed with von Frey filaments (Ugo Basile, Italy). The mice were placed on a 5×5-mm wire-mesh grid floor in individual compartments to avoid visual stimulation and allowed to adapt for 0.5 h prior to the von Frey test. The von Frey filament was then applied to the middle of the plantar surface of the hind paw with 5 g force. The withdrawal responses following the hind paw stimulation were measured at least three times, and the mechanical allodynia, which was defined as an increase in the number of withdrawal responses to the stimulation, was compared.
Thus, in vivo, KP functions as an analgesic when administered systemically in injury-related pain models.
Next, whether the analgesic effects of KP were mediated centrally at the spinal cord level was assessed.
Mechanical withdrawal was measured thresholds after nerve constriction injury (PSNL) (FIG. 12B and FIG. 12C). […] Thus, δ-cat(S276A) spinal transgenesis via AAV9 is sufficient to evoke analgesia after nerve constriction injury, to lesser degree also with δ-cat(WT). Importantly, δ-cat(S276A) spinal transgenesis was accompanied by increased expression of KCC2 in the SCDH. […] Moreover, our discovery points toward a genetically-encoded approach that can be developed for translation into clinical use as an alternative or complement to KP-related small molecules.

[1] = tested on: beta-cat binding to KCC2 promoter; experiment: ChIP with anti-beta-cat antibody at KCC2 promoter; assay type: cell-based, rat; details: KP-treated vs vehicle
Protocol: ChIP assay was carried out as described previously (Yeo et al., 2009, J Neurosci 29:14652-14662; Yeo et al., 2013, Proc Natl Acad Sci USA 110:4315-4320). Primary cortical neurons (0.7×10^6) were used for each ChIP experiment. Cells were crosslinked with 1% formaldehyde for 30 min, washed twice with cold PBS, resuspended in lysis buffer [1% SDS, 10 mm EDTA, and 50 mm Tris-HCl, pH 8.0, with protease inhibitor cocktail (Roche)], and sonicated for 15 s pulses. The lysates were clarified by centrifugation at 10,000 rpm for 10 min at 4° C. in a microcentrifuge. One-tenth of the total lysate was used as input control of genomic DNA. Supernatants were collected and diluted in buffer (1% Triton X-100, 2 mm EDTA, 150 mm NaCl, 20 mm Tris-HCl, pH 8.0, and protease inhibitor cocktail) followed by immunoclearing with 1 mg of salmon sperm DNA, 10 ml of rabbit IgG, and 20 ml of protein A/G-Sepharose (Santa Cruz Biotechnology) for 1 h at 4° C. Immunoprecipitation was performed overnight at 4° C. with 2 mg of each specific antibody. Precipitates were washed sequentially for 10 min each in TSE1 buffer (0.1% SDS, 1% Triton X-100, 2 mm EDTA, 150 mm NaCl, and 20 mm Tris-HCl, pH 8.0), TSE2 (TSE1 with 500 mm NaCl), and TSE3 (0.25 m LiCl, 1% NP-40, 1% deoxycholate, 1 mm EDTA, and 10 mm Tris-HCl, pH 8.0). […]

Compound: O=C1Cc2c([nH]c3ccc(Br)cc23)-c2ccccc2N1 [kenpaullone, 9-bromo-7,12-dihydro-indolo [3,2-d] [1]benzazepin-6(5H)-one]
- KCC2 mRNA expression in SCDH lamina-I/II (KCC2 mRNA): rescues significantly attenuated KCC2 mRNA expression
- analgesic effect on sensitized mechanical withdrawal (nerve injury pain; 10 mg/kg i.p. daily after nerve constriction injury): less accentuated
- analgesic effect on sensitized mechanical withdrawal (nerve injury pain; 30 mg/kg i.p. daily after nerve constriction injury): more pronounced
- behavioral sensitization of juvenile mice (nerve injury pain; KP 30 mg/kg, PSNL, juvenile mice): almost complete behavioral recovery
- mechanical allodynia (nerve injury pain; intrathecal 30 μg, nerve constriction injury): reduced mechanical allodynia
- protracted analgesia (nerve injury pain; systemic KP, d7-14 after nerve constriction): almost complete elimination of sensitization
- binding of beta-cat to TCF site [1]: significantly increases binding
